Laboratory results from patent publication US10131652B2, “Pyrimidinyloxy benzene derivatives as herbicides” (E. I. DU PONT DE NEMOURS AND COMPANY, priority 2014, dated 2018).

Tests used:
Format in all cases: in vivo
[1] = test system: barnyardgrass (Echinochloa crus-galli); experiment: Test C flooded paddy test plant response; settings: Flood, 250 g ai/ha; scale of 0 to 100 where 0 is no effect and 100 is complete control; 13 to 15 days
Outline: (§1)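 Greenhouse paddy assay, 13–15 days. Treatment into 3 cm floodwater over 2-leaf plants; visual 0–100 rating against controls.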

[2] = test system: ducksalad (Heteranthera limosa); experiment: Test C flooded paddy test plant response; settings: Flood, 250 g ai/ha; scale of 0 to 100 where 0 is no effect and 100 is complete control; 13 to 15 days
Outline: as §1

rice (Oryza sativa) = experiment: Test C flooded paddy test plant response; settings: Flood, 250 g ai/ha; scale of 0 to 100 where 0 is no effect and 100 is complete control; 13 to 15 days
Outline: as §1

[3] = test system: small-flower umbrella sedge (Cyperus difformis); experiment: Test C flooded paddy test plant response; settings: Flood, 250 g ai/ha; scale of 0 to 100 where 0 is no effect and 100 is complete control; 13 to 15 days
Outline: as §1

[4] = test system: johnsongrass (Sorghum halepense); experiment: Test D pre-/postemergence plant response; settings: Postemergence; for Plant response rating, Johnsongrass: scale 0 to 100, 0 no effect, 100 complete control
Outline: (§2)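 Seeds sown in loam–sand blend got preemergence sprays of test chemicals in a non-phytotoxic solvent with surfactant; postemergence sprays went on plants at 1- to 4-leaf stage (2 to 18 cm) in peat/vermiculite medium. After 13 to 15 days in greenhouse, visual injury versus controls scored 0 (no effect) to 100 (complete control).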

[5] = test system: large (Lg) crabgrass (Digitaria sanguinalis); experiment: Test D pre-/postemergence plant response; settings: Postemergence; for Crabgrass, Large plant response rating: scale 0 to 100 (0 no effect, 100 complete control); for Plant response rating, Crabgrass, Large: scale 0 to 100, 0 no effect, 100 complete control
Outline: as §2

[6] = test system: oilseed rape (Brassica napus); experiment: Test D pre-/postemergence plant response; settings: Postemergence; for Plant response rating, Oilseed Rape: scale 0 to 100, 0 no effect, 100 complete control
Outline: as §2

soybean (Glycine max) = experiment: Test D pre-/postemergence plant response; settings: Postemergence; for Plant response rating, Soybean: scale 0 to 100, 0 no effect, 100 complete control
Outline: as §2

[7] = test system: velvetleaf (Abutilon theophrasti); experiment: Test D pre-/postemergence plant response; settings: Postemergence; for Plant response rating, Velvetleaf: scale 0 to 100, 0 no effect, 100 complete control
Outline: as §2

[8] = test system: winter wheat (Triticum aestivum); experiment: Test D pre-/postemergence plant response; settings: Postemergence; for Plant response rating, Wheat: scale 0 to 100, 0 no effect, 100 complete control
Outline: as §2

[9] = test system: yellow nutsedge (Cyperus esculentus); experiment: Test D pre-/postemergence plant response; settings: Postemergence; for Plant response rating, Nutsedge, Yellow: scale 0 to 100, 0 no effect, 100 complete control
Outline: as §2

[10] = test system: chickweed (common chickweed, Stellaria media); experiment: Test D postemergence plant response; settings: for Chickweed plant response rating: scale 0 to 100 (0 no effect, 100 complete control); for Plant response rating, Chickweed: scale 0 to 100, 0 no effect, 100 complete control
Outline: (§3)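 Plants grown in pots of peat moss–vermiculite medium with wetting agent and starter nutrients received postemergence applications of the formulated test chemicals at 2 to 18 cm height (1- to 4-leaf stage). After 13 to 15 days in a greenhouse, injury was scored visually against untreated controls, 0 (no effect) to 100 (complete control).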

kochia (Kochia scoparia) = experiment: Test D postemergence plant response; settings: for Plant response rating, Kochia: scale 0 to 100, 0 no effect, 100 complete control
Outline: as §3

wild oat (Avena fatua) = experiment: Test D postemergence plant response; settings: for Plant response rating, Oat, Wild: scale 0 to 100, 0 no effect, 100 complete control
Outline: as §3

[11] = 31 g ai/ha, scale 0 to 100 (0 no effect, 100 complete control)

FC(F)(F)c1cc(-c2c(Br)cccc2Oc2ncc(Cl)cn2)no1 [Compound 170]
Barnyardgrass plant response rating [1]: 0 | Ducksalad plant response rating [2]: 0 | Rice plant response rating (rice (Oryza sativa)): 0 | Sedge, Umbrella plant response rating [3]: 0 | Johnsongrass plant response rating [4, 11]: 0 | Plant response rating, Johnsongrass ([4]; 62 g ai/ha): 0 | Plant response rating, Johnsongrass ([4]; 125 g ai/ha): 5 | Crabgrass, Large plant response rating ([5]; 16 g ai/ha): 5 | Crabgrass, Large plant response rating ([5]; 31 g ai/ha): 5 | Plant response rating, Crabgrass, Large ([5]; 62 g ai/ha): 5 | Plant response rating, Crabgrass, Large ([5]; 125 g ai/ha): 10 | Oilseed Rape plant response rating [6, 11]: 5 | Plant response rating, Oilseed Rape ([6]; 62 g ai/ha): 40 | Plant response rating, Oilseed Rape ([6]; 125 g ai/ha): 25 | Soybean plant response rating (soybean (Glycine max); [11]): 10 | Plant response rating, Soybean (soybean (Glycine max); 62 g ai/ha): 10 | Plant response rating, Soybean (soybean (Glycine max); 125 g ai/ha): 35 | Velvetleaf plant response rating [7, 11]: 5 | Plant response rating, Velvetleaf ([7]; 62 g ai/ha): 25 | Plant response rating, Velvetleaf ([7]; 125 g ai/ha): 25 | Wheat plant response rating [8, 11]: 20 | Plant response rating, Wheat ([8]; 62 g ai/ha): 10 | Plant response rating, Wheat ([8]; 125 g ai/ha): 15 | Nutsedge, Yellow plant response rating [9, 11]: 5 | Plant response rating, Nutsedge, Yellow ([9]; 62 g ai/ha): 5 | Plant response rating, Nutsedge, Yellow ([9]; 125 g ai/ha): 10 | Chickweed plant response rating ([10]; 16 g ai/ha): 30 | Chickweed plant response rating ([10]; 31 g ai/ha): 65 | Plant response rating, Chickweed ([10]; 62 g ai/ha): 90 | Plant response rating, Chickweed ([10]; 125 g ai/ha): 100 | Kochia plant response rating (kochia (Kochia scoparia); [11]): 60 | Plant response rating, Kochia (kochia (Kochia scoparia); 62 g ai/ha): 85 | Plant response rating, Kochia (kochia (Kochia scoparia); 125 g ai/ha): 100 | Oat, Wild plant response rating (wild oat (Avena fatua); [11]): 5 | Plant response rating, Oat, Wild (wild oat (Avena fatua); 62 g ai/ha): 5 | Plant response rating, Oat, Wild (wild oat (Avena fatua); 125 g ai/ha): 10
